Measurements reported in EP0517412A1, “Pharmaceutical formulations of a benzodiazepine” (MERCK SHARP & DOHME LTD., priority 1991, dated 1992).

How the values were obtained:
Assay type in all cases: physicochemical
[1] = solubility of the benzodiazepine in prior-art type carriers
[2] = solubility in water
[3] = maximum solubility of the benzodiazepine in carriers of the invention

Cc1cccc(NC(=O)NC2N=C(c3ccccc3)c3ccccc3N(C)C2=O)c1 (stereo not drawn) [(A), 3R(+)-N-(2,3-dihydro-1-methyl-2-oxo-5-phenyl-1H-1,4-benzodiazepin-3-yl)-N'-(3-methylphenyl)-urea]
solubility (carrier a poor solvent) ([1]; benzodiazepine substituted for cyclosporin in formulation type of GB 2 228 198 (Maisine and Cremophore RH40)): less than 10 mg/g | solubility ([1]; benzodiazepine substituted for cyclosporin in formulation type of GB 2015339 (Labrafil M1944CS and ethanol with corn oil or olive oil; or glycerol mono-oleate and ethanol)): ~20 mg/g | solubility ([1]; benzodiazepine substituted for dihydrocyclosporin in formulation type of BE 895 724 (ethanol, Imwitor 742, esterified corn oil)): ~60 mg/g | solubility [2]: < 2 µg/mL | amount that can be dissolved ([3]; Method 2 (room temperature method, 20°C, Silverson mixer), Labrafil M2125 CS, Tween 80, propylene glycol, purified water): up to 6 % (w/w) | maximum solubility for the benzodiazepine ([3]; carrier Labrasol/Tween 80): ~240 mg/g | maximum solubility for the benzodiazepine ([3]; carrier comprising Imwitor 742 and Tween 80): ~140 mg/g | maximum solubility for the benzodiazepine ([3]; corresponding Labrafil-containing carrier): 60 to 80 mg/g | solubility in the mixture of ingredients of the carrier ([3]; mixture of carrier ingredients compared with the separate ingredients): more than in the separate ingredients | percentage of the active ingredient that can be dissolved in the carrier ([3]; without heating): around 6%
